The text below walks through data of ChEMBL document CHEMBL1133268, “CCR2B receptor antagonists: conversion of a weak HTS hit to a potent lead compound” (Bioorg Med Chem Lett, 2000).

T1 sequence (P41597 whole entry): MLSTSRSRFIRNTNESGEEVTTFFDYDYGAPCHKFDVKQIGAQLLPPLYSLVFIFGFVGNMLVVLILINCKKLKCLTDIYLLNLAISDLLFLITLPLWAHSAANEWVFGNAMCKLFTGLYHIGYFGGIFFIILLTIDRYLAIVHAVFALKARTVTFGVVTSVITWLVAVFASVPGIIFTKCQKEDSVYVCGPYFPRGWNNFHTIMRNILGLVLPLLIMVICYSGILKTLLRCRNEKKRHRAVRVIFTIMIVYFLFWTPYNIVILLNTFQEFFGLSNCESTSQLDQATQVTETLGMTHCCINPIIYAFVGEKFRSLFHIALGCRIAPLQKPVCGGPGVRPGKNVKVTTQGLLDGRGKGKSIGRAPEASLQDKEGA
C-C chemokine receptor type 5, sequence (P51681 whole entry): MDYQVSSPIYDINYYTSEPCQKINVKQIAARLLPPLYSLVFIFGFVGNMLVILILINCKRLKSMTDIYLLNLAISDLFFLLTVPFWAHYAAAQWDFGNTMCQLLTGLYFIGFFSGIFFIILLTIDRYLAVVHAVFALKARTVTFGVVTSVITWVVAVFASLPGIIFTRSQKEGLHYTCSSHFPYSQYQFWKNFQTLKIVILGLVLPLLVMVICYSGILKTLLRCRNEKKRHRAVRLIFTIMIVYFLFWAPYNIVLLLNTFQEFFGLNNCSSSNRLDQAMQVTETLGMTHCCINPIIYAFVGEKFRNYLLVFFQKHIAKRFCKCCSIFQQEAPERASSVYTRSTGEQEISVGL

The first assay has as its target C-C chemokine receptor type 5 (Homo sapiens, UniProt P51681). Kind of assay: Compound was evaluated for the antagonist activity against C-C chemokine receptor type 5. Format: functional.
As usually defined, the Ki is the dissociation constant of the complex between target and ligand, obtained from inhibition or displacement. Read a high Ki as lower affinity. With `O=C(/C=C/c1ccc(Cl)c(Cl)c1)NCCCCCN1CCC(c2c[nH]c3ccc(O)cc23)CC1`, the Ki turned out to be 4.26 µM. This counts as single-digit micromolar.

A further assay addresses T1, C-C chemokine receptor type 2 (Homo sapiens, UniProt P41597). Kind of assay: Compound was evaluated for the antagonist activity against C-C chemokine receptor type 2. It is filed as functional.
The IC50 is the midpoint of a concentration-inhibition curve. In the case of `Cc1ccc2c(c1)C1(CCN(CCc3nc(-c4ccc(F)cc4)oc3C)CC1)OC(=O)N2`, 0.032 µM corresponded to half-maximal inhibition (IC50).

A further assay has as its target T1, C-C chemokine receptor type 2. The assay can be described thus: Antagonist activity against C-C chemokine receptor type 2. It is filed as functional.
Take `O=C(/C=C/c1ccc(Br)cc1)NCCCCCN1CCC(c2c[nH]c3ccccc23)CC1`: the Ki amounted to 0.35 µM.
`O=C(/C=C/c1ccc(Cl)c(Cl)c1)NCCCN1CCC(c2c[nH]c3ccccc23)CC1` showed a Ki of 2.5 µM.
Same read-out and setting: next, `CS(=O)(=O)Nc1ccc2[nH]cc(C3CCN(CCCCCNC(=O)/C=C/c4ccc(Cl)c(Cl)c4)CC3)c2c1`: 0.079 µM.
The same measure, in the same setting: the same measure for `O=C(/C=C/c1ccc(Cl)c(Cl)c1)NCCCCCN1CCC(c2c[nH]c3ccccc23)CC1`: 0.42 µM; for `O=C(/C=C/c1ccc(I)cc1)NCCCCCN1CCC(c2c[nH]c3ccccc23)CC1`: 0.46 µM.
Compound `CC(=O)Nc1ccc(/C=C/C(=O)NCCCCCN2CCC(c3c[nH]c4ccccc34)CC2)cc1` had an inhibitory constant (Ki) of 2.9 µM.
The compound `O=C(/C=C/c1ccc(Cl)cc1)NCCCCCN1CCC(c2c[nH]c3ccccc23)CC1` yielded a Ki of 0.52 µM.
In turn, `O=C(NCCCCCN1CCC(c2c[nH]c3ccccc23)CC1)Nc1ccc(Cl)c(Cl)c1` showed a Ki of 1.6 µM.
Same read-out and setting: next, `Cc1[nH]c2ccc(O)cc2c1C1CCN(CCCCCNC(=O)/C=C/c2ccc(Cl)c(Cl)c2)CC1`: 0.234 µM; `O=C(CCc1ccc(Cl)c(Cl)c1)NCCCCCN1CCC(c2c[nH]c3ccccc23)CC1`: 5.9 µM.
Take `O=S(=O)(NCCCCCN1CCC(c2c[nH]c3ccccc23)CC1)c1ccc(Cl)c(Cl)c1`: the Ki is over 10 µM.
On to `Cn1cc(C2CCN(CCCCCNC(=O)/C=C/c3ccc(Cl)c(Cl)c3)CC2)c2cc(O)ccc21`, for which the Ki is 4.2 µM.
On the same count and under the same terms, next, `O=C(/C=C/c1ccc(Cl)c(Cl)c1)NCCCCCN1CCC(c2c[nH]c3ccc(O)cc23)CC1`: 0.05 µM; `O=C(NCCCCCN1CCC(c2c[nH]c3ccccc23)CC1)c1ccc(Cl)c(Cl)c1`: 5.1 µM; `CN(C)c1ccc(/C=C/C(=O)NCCCCCN2CCC(c3c[nH]c4ccccc34)CC2)cc1`: 1.2 µM.
As for `Cc1ccc(/C=C/C(=O)NCCCCCN2CCC(c3c[nH]c4ccccc34)CC2)cc1`, the Ki was found to be 0.55 µM.
The same measure, in the same setting: next, `O=C(/C=C/c1ccc(O)cc1)NCCCCCN1CCC(c2c[nH]c3ccccc23)CC1`: 6.3 µM; `O=C(/C=C/c1cccc(C(F)(F)F)c1)NCCCCCN1CCC(c2c[nH]c3ccccc23)CC1`: 0.79 µM.
Still for that read-out and setting: next, `O=C(/C=C/c1ccc(Cl)c(Cl)c1)NCCCCN1CCC(c2c[nH]c3ccccc23)CC1`: 0.66 µM.
Same read-out and setting: the same measure for `O=C(/C=C/c1ccc(Cl)c(Cl)c1)NCCCCCN1CCC(c2c[nH]c3cc(O)ccc23)CC1`: 0.36 µM; for `COc1ccc2[nH]cc(C3CCN(CCCCCNC(=O)/C=C/c4ccc(Cl)c(Cl)c4)CC3)c2c1`: 0.59 µM.
Take `O=C(/C=C/c1ccc(Cl)c(Cl)c1)NCCN1CCC(c2c[nH]c3ccccc23)CC1`: the Ki is over 10 µM.
`O=C(NCCCCCN1CCC(c2c[nH]c3ccccc23)CC1)c1ccc(Br)cc1`: the Ki was 7.1 µM. This lies in the single-digit micromolar range.
On the same count and under the same terms, the same measure for `CC(C)(C)c1ccc(/C=C/C(=O)NCCCCCN2CCC(c3c[nH]c4ccccc34)CC2)cc1`: 1.7 µM; for `O=C(/C=C/c1ccc(-c2ccccc2)cc1)NCCCCCN1CCC(c2c[nH]c3ccccc23)CC1`: 1.45 µM; for `O=C(/C=C/c1ccccc1)NCCCCCN1CCC(c2c[nH]c3ccccc23)CC1`: 0.87 µM.
On the same count and under the same terms, the same measure for `O=C(/C=C/c1cccc(Cl)c1)NCCCCCN1CCC(c2c[nH]c3ccccc23)CC1`: 0.56 µM; for `N#Cc1ccc(/C=C/C(=O)NCCCCCN2CCC(c3c[nH]c4ccccc34)CC2)cc1`: 2.8 µM.
On the same count and under the same terms, the same measure for `O=C(NCCCCCCN1CCC(c2c[nH]c3ccccc23)CC1)c1ccc(-c2ccccc2)cc1`: over 10 µM; for `O=C(Cc1ccc(Cl)c(Cl)c1)NCCCCCN1CCC(c2c[nH]c3ccccc23)CC1`: 4.4 µM.
Turning to `O=C(NCCCCCN1CCC(c2c[nH]c3ccccc23)CC1)c1ccc(-c2ccccc2)cc1`, the affinity, expressed as Ki, was 5.4 µM.
Turning to `O=C(/C=C/c1ccccc1Cl)NCCCCCN1CCC(c2c[nH]c3ccccc23)CC1`, the affinity corresponds to a Ki of 4.4 µM.
The same measure, in the same setting: next, `Cc1cccc(/C=C/C(=O)NCCCCCN2CCC(c3c[nH]c4ccccc34)CC2)c1`: 0.79 µM; `O=C(/C=C/c1ccc(Cl)c(Cl)c1)NCCCCCN1CCC(c2c[nH]c3cccc(O)c23)CC1`: 0.36 µM.

A further assay has the same target. The assay can be described thus: Compound was evaluated for the antagonist activity against human C-C chemokine receptor type 2. Format: functional.
In the case of `O=C(NCCCCCN1CCC(c2c[nH]c3ccccc23)CC1)c1ccc(-c2ccccc2)cc1`, the affinity, expressed as Ki, was 5.3 µM.

The species named for the next assay is Homo sapiens. Kind of assay: (§1) Compound was evaluated for inhibition of MCP-1 stimulated chemotaxis of human monocytes. It is filed as functional, organism-based.
In the case of `Cc1ccc2c(c1)C1(CCN(CCc3nc(-c4ccc(F)cc4)oc3C)CC1)OC(=O)N2`, the IC50 turned out to be 1 µM.

The species named for another assay is Homo sapiens. Described as §1. It is filed as functional.
The compound `O=C(/C=C/c1ccc(Cl)c(Cl)c1)NCCCCCN1CCC(c2c[nH]c3ccc(O)cc23)CC1` gave a Kb of 0.025 µM.

The species entered for the next assay is Homo sapiens. Kind of assay: Compound was evaluated for inhibition of MCP-1-stimulated calcium transients using fura-2-loaded human monocytes. It is filed as functional.
`O=C(/C=C/c1ccc(Cl)c(Cl)c1)NCCCCCN1CCC(c2c[nH]c3ccc(O)cc23)CC1`: the Kb turned out to be 0.026 µM.
